The nature of series [1]: Antiinflammatory activity in human BEAS2B cells assessed as inhibition of IL4 and TNF-alpha-induced eotaxin production at 10 uM after 48 hrs by ELISA pretreated for 2 hrs before IL4 and TNFalpha challenge. Format: functional, BEAS-2B.
A short description of series [2]: Antiinflammatory activity in human BEAS2B cells assessed as inhibition of IL4-induced eotaxin production at 10 uM after 48 hrs by ELISA pretreated for 2 hrs before IL4 challenge (reference value: 58.5+/-4.7 ng/mL). The class given is functional, BEAS-2B.
Series [3] deals with BEAS-2B. The experiment in a line: Antiinflammatory activity in human BEAS2B cells assessed as inhibition of IL4-induced eotaxin production after 48 hrs by ELISA pretreated for 2 hrs before IL4 challenge. Format: functional, cell-based. On the technique in general: An ELISA detects its analyte on a solid surface through an enzyme-linked reagent.
Series [4] can be described thus: Antiinflammatory activity in human BEAS2B cells assessed as inhibition of IL4 and TNF-alpha-induced eotaxin production after 48 hrs by ELISA pretreated for 2 hrs before IL4 and TNFalpha challenge (Rvb= 450+/-38.4 pg/mL). Format: functional, BEAS-2B.
The nature of series [5]: Cytotoxicity against human BEAS2B cells at 10 uM after 48 hrs by MTT assay in the presence of IL4. Particulars: beas-2b. Format: cell-based.
The nature of series [6]: Cytotoxicity against human BEAS2B cells at 10 uM after 48 hrs by MTT assay. Format: cell-based. Particulars: beas-2b. In general terms: Tetrazolium dyes change colour on reduction, which living cells bring about.

In the case of `COc1ccc2ccc(=O)oc2c1CC=C(C)C` [OSTHOLE], the results for the Activity in series [1] and in series [2] were 187.3 pg/mL and 16.8 pg/mL, respectively.
As to `CC(=O)OC[C@H]1O[C@@H](O[C@H]2[C@H](O[C@@](C)(CCC=C(C)C)[C@H]3CC[C@]4(C)[C@@H]3[C@H](O)C[C@@H]3[C@@]5(C)C[C@@H](O)[C@H](O[C@@H]6O[C@H](CO)[C@@H](O)[C@H](O)[C@H]6O)C(C)(C)[C@@H]5CC[C@]34C)O[C@H](CO)[C@@H](O)[C@@H]2O)[C@H](O)[C@@H](O)[C@@H]1O`, the Activity was 157.2 pg/mL in series [1] and “Dose-dependent effect” in series [3].
Consider `CC(C)=CCC[C@](C)(O[C@@H]1O[C@H](CO[C@@H]2OC[C@@H](O)[C@H](O)[C@H]2O)[C@@H](O)[C@H](O)[C@H]1O)[C@H]1CC[C@]2(C)[C@@H]1[C@H](O)C[C@@H]1[C@@]3(C)C[C@@H](O)[C@H](O[C@@H]4O[C@H](CO)[C@@H](O[C@@H]5O[C@H](CO)[C@@H](O)[C@H](O)[C@H]5O)[C@H](O)[C@H]4O)C(C)(C)[C@@H]3CC[C@]12C`, for which the Activity was 197.2 pg/mL in series [4], “Non-toxic” in series [5], “Dose-dependent effect” in series [3] and “Non-toxic” in series [6].
